Reference: PMC3742671, “Structure, Antimicrobial Activities and Mode of Interaction with Membranes of Bovel Phylloseptins from the Painted-Belly Leaf Frog, Phyllomedusa sauvagii” (PLoS ONE, 2013)
Ends that are not written are not given here.

Tests used:
[1] = test system: S. aureus ST1065; assay: Time-kill assay; format: cell-based; conditions: for time to complete killing: peptide at two-fold above the MIC (MIC 6.25 µM), ∼2–3 10^6 cfu/mL in PBS, two experiments in triplicates
Experimental: (§1) The time-kill kinetics of phylloseptins-S against the Gram-negative bacteria E. coli ML-35p and the Gram-positive strain S. aureus ST1065 were evaluated as previously described with a dose of peptide corresponding to the MIC and two-fold above the MIC. Two experiments were realized in triplicates.
(§2) Figure 4 Time-kill curves of PLS-S1 (S1), -S2 (S2), and -S4 (S4). […] Controls correspond to bacteria incubated in PBS without peptide. The data are the means ± S.E.M. of two experiments carried out in triplicates.

[2] = test system: S. aureus ST1065; assay: Permeabilization of the cytoplasmic membrane (ONPG hydrolysis); format: cell-based; conditions: ONP production at 405 nm from ONPG; compared with 10 µM dermaseptin B2 as positive control
Experimental: (§3) PLS-induced permeabilization of the cytoplasmic plasma membranes of E. coli ML-35p and S. aureus ST1065 was measured by the rate of production of o-nitrophenol (ONP) at 405 nm, following hydrolysis of o-nitrophenyl β-D-galactopyranoside (ONPG) by β-galactosidase. Dermaseptin B2 (10 µM) and PBS were used as positive and negative controls, respectively.
(§4) PLS-induced permeabilization of the cytoplasmic membranes of S. aureus ST1065 and E. coli ML-35p was analyzed by incubating the bacteria, which express β-galactosidase constitutively, with different concentrations of the peptides (S. aureus ST1065: PLS-S1, -S2, and -S4; E. coli ML-35p: PLS-S2 and -S4) and measuring the time-dependent hydrolysis of the small chromogenic substrate o-nitrophenyl-β-D-galactopyranoside (ONPG) into o-nitrophenol (ONP) by cytoplasmic β-galactosidase (Fig. 5). The three peptides permeabilized the bacterial cytoplasmic membrane with increasing severity according to the time and the peptide concentration. […] To investigate the mechanism of permeabilization, E. coli ML-35p were incubated with PLS-S2 (30 and 100 µM) and PLS-S4 (25 and 100 µM) for 60 min and β-galactosidase activity was measured after removing bacteria by centrifugation and adding ONPG to the supernatant.
(§5) Figure 5 Kinetics of the cytoplasmic membrane leakage of E. coli ML-35p and S. aureus ST1065 after incubation with different concentrations of active phylloseptins-S. The membrane leakage was determined by measuring the production of o-nitrophenol at 405 nm following hydrolysis of ONPG by the cytoplasmic bacterial β-galactosidase. Data are expressed as the mean ± S.E.M of two experiments carried out in triplicates after subtraction of the negative control values (w/o peptide) from the test values. Control panels display the kinetics obtained without peptide (negative control) and with 10 µM dermaseptin B2 (Drs B2, positive control). For E. coli ML-35p, the extracellular release of β-galactosidase was also measured as the production of o-nitrophenol at 405 nm after incubation (60 min) of E. coli cells with PLS-S2 (30 and 100 µM) and PLS-S4 (25 and 100 µM), removing of bacteria by centrifugation and adding ONPG to the supernatant. The negative (w/o peptide) and positive (10 µM Drs B2) controls are indicated for comparison. Results are expressed as the mean ± S.E.M of one representative experiment performed in triplicates.

[3] = test system: Escherichia coli; conditions: cited from earlier work
From the text: The 16–19 amino acid residue phylloseptins (PLSs) are a new emerging family of cationic antimicrobial peptides that belong to the dermaseptin superfamily, and whose members have been isolated from various genera of the Phyllomedusinae subfamily (Agalychnis, Phasmahyla, and Phyllomedusa), [10]–[16]. Like the archetypal dermaseptins (sensu stricto), these peptides seem to occur in multiple paralogous forms in each species with small differences in amino acid composition. Although only a few of these peptides were properly tested against various microorganisms, significant differences i ...

[4] = test system: E. coli ML-35p; assay: Time-kill assay; format: cell-based; conditions: MIC (25 µM) and two-fold above the MIC, in PBS; two experiments in triplicates
Experimental: as §1, §2

[5] = test system: E. coli ML-35p; assay: Permeabilization of the cytoplasmic membrane (ONPG hydrolysis); format: cell-based; conditions: ONP production at 405 nm from ONPG; compared with 10 µM dermaseptin B2 as positive control
Experimental: as §3, §4, §5

[6] = test system: E. coli ML-35p; assay: Extracellular release of β-galactosidase; format: cell-based; conditions: 60 min incubation; PLS-S2 30 and 100 µM, PLS-S4 25 and 100 µM, dermaseptin B2 10 µM; ONPG added to supernatant
Experimental: as §4
Figure 5 Kinetics of the cytoplasmic membrane leakage of E. coli ML-35p and S. aureus ST1065 after incubation with different concentrations of active phylloseptins-S. The membrane leakage was determined by measuring the production of o-nitrophenol at 405 nm following hydrolysis of ONPG by the cytoplasmic bacterial β-galactosidase. […] Results are expressed as the mean ± S.E.M of one representative experiment performed in triplicates.

Row | Substance | time to complete killing [1] | permeabilization of the cytoplasmic membrane (in words) [2] | MIC [3] | killing kinetics (in words) [4] | permeabilization of the cytoplasmic membrane (in words) [5] | extracellular release of β-galactosidase (in words) [6] | killing kinetics (in words) ([1]; compared with PLS-S1 and -S2, MIC and two-fold above the MIC, in PBS)
1 | FLSLIPHIVSGVASIAKHF-NH2 [PLS-S1] | ≤ 5 min | as efficient as with dermaseptin-B2 | 80 µM | – | – | – | –
2 | FLSLIPHIVSGVASLAKHF-NH2 [PLS-S2] | ≤ 5 min | as efficient as with dermaseptin-B2 | – | Almost similar rapid killing kinetics | lower efficiency | dose-dependent release of β-galactosidase | –
3 | FLSMIPHIVSGVAALAKHL-NH2 [PLS-S4] | – | as efficient as with dermaseptin-B2 | – | Almost similar rapid killing kinetics | as efficient as with dermaseptin-B2 | dose-dependent release of β-galactosidase | slower
